Results on 48 substances are retold here after patent publication US20120003661A1, “METHODS AND DEVICES FOR THE SELECTIVE DETECTION OF MICROORGANISMS” (C3 JIAN, INC., priority 2010, published 2012).

“Also recorded” adds a separate entry of the source. Read-outs that look alike come from different tables or passages of the source.

The subject of the experiment is bacteria, fungi, and/or yeasts. It is filed as binding.
[1] abbreviates: microorganism(s) the targeting peptide binds, as listed in Table 2.
Setting [2] is: microorganism(s) listed as target(s) of the targeting peptide, wrapped target lists given cell by cell.
The mark [3] stands for this setting: microorganism(s) that the targeting peptide binds, as listed in Table 2.

1T-43 (DRCLSVLSWSPPKVSPLI): the “Target(s)” value under setting [1] is “C. jeikium, P. aeruginosa”.
In the case of PF-043 (MIKNETAYQMNELLVIRSAYAK), the “Target(s)” value under setting [2] is “M. luteus, C. jejuni”.
Regarding 1T-32 (VSFLAGWLCLGLAAWRLGNA), the “Target(s)” value under setting [1] is given as “S. mutans”.
Take “PF-S029 (TSDTQSQSPWLFDNADIVNIYPVQLMHSSDND)”: the “Target(s)” value under setting [3] is recorded as “M. luteus, P. mirabilis, E. coli, C. albicans,; also recorded: C. jeikeium, C. jejuni”.
As for 1T-157 (RRFRKTTENREKSKNKKAVLGLSTTSTASY), under setting [1], the “Target(s)” value was “A. naeslundii, F. nucleatum, P. gingivalis,; also recorded: T. denticola, S. gordonii,; also recorded: S. mitis, S. mutans, S. oralis,; also recorded: S. salivarious, S. sanguinis”.
As for PF-C291 (HPFLTGTGCPLFLIFRLFFVKAYFSFTVF), the “Target(s)” value under setting [3] is “A. naeslundii, F. nucleatum, P. gingivalis,; also recorded: S. mutans”.
For 1T-242 (KQVQNTTLIICGTVLLGILFKSYLKSQKSV), the “Target(s)” value under setting [1] is “F. nucleatum, S. sanguinis”.
The same measure, in the same setting: the same measure for 1T-237 (EDPVPNHFTLRRNKKEKPSKS): “S. sanguinis”; for 1T-107 (SPVPRFTAVGGVSRGSP): “A. naeslundii, S. epidermidis, S. gordonii,; also recorded: S. mitis, S. mutans, S. oralis,; also recorded: S. salivarious, S. sanguinis”.
1T-17 (NNAIVYIS): the “Target(s)” value by setting is: under setting [2], “yeast and hyphal forms”; under setting [1], “S. mutans”.
For the substance PF-797 (WYYFDNNGYM), under setting [3], the “Target(s)” value was “S. mutans”.
For “1T-257 (IILAKAADLAEIERIISEDPFKINEIANYDIIEFCPTKSSKAFEKVLK)”, the “Target(s)” value under setting [2] is “A. naeslundii, F. nucleatum, P. gingivalis,; also recorded: S. epidermidis, S. gordonii,; also recorded: S. mitis, S. mutans, S. oralis,; also recorded: S. salivarious, S. sanguinis”.
Still for that read-out and setting: the value for PF-172 (LTGVRRPWRAPWAGTSGWALR) was “S. epidermidis, M. luteus, E. coli,; also recorded: P. aeruginosa, MRSA, E. faecalis,; also recorded: C. jejuni”.
For the substance 1T-81 (AIATGLDIVDGKFDGYLWA), the “Target(s)” value under setting [1] was “S. pneumoniae”.
Same read-out and setting: the same measure for 1T-124 (LFDERNKIA): “S. mitis, S. mutans, S. oralis”.
As to “PF-C098 (PETKGKVSAFVFGIVVANVIAVVYILYMLREIGIIQ)”, under setting [3], the “Target(s)” value is given as “A. naeslundii, F. nucleatum, P. gingivalis,; also recorded: S. mutans, T. denticola”.
For “PF-062 (MKKKRINNDILGRMIYSSSIDKRNLYNLKYYE)”, the “Target(s)” value under setting [2] is listed as “S. epidermidis, M. luteus, E. coli,; also recorded: P. aeruginosa, MRSA, S. pneumoniae,; also recorded: E. faecalis, C. jeikeium”.
For PF-C143 (VVFGGGDRLV), under setting [3], the “Target(s)” value is listed as “A. naeslundii, F. nucleatum, P. gingivalis,; also recorded: S. mutans, T. denticola”.
As for 1T-76 (EMRLSKFFRDFILWRKK), under setting [1], the “Target(s)” value is on record as “S. pneumoniae”.
On the same count and under the same terms, the same measure for “1T-132 (YSKKLFEYFYFIIFILIRYLIFYKIIQNKNYYINNIAYN)”: “A. naeslundii, F. nucleatum, P. gingivalis,; also recorded: S. epidermidis, S. gordonii,; also recorded: S. mitis, S. mutans, S. oralis,; also recorded: S. salivarious, S. sanguinis”.
Regarding PF-031 (MPHHSTTSSRIVVPAHQSNMASTPNLSITP), the “Target(s)” value under setting [2] was “M. luteus, C. albicans”.
As to 1T-116 (MILHRRRDR), the “Target(s)” value under setting [1] is recorded as “A. naeslundii, P. gingivalis, S. epidermidis,; also recorded: S. gordonii, S. mitis,; also recorded: S. mutans, S. oralis, S. salivarious,; also recorded: S. sanguinis”.
In the case of PF-800 (WYYFDNNGYM), the “Target(s)” value under setting [3] is “S. mutans”.
In the case of PF-030 (MTCHQAPTTTHQSNMA), the “Target(s)” value under setting [2] was “yeast and hyphal forms; also recorded: S. epidermidis, M. luteus, P. mirabilis,; also recorded: E. coli, P. aeruginosa,; also recorded: C. albicans, MRSA, S. pneumoniae,; also recorded: E. faecalis, C. jeikeium,; also recorded: C. jejuni”.
Still for that read-out and setting: the value for 1T-277 (IYYMRFVNKPLEKTFFKI) was “A. naeslundii, F. nucleatum, P. gingivalis,; also recorded: T. denticola, S. gordonii,; also recorded: S. mitis, S. mutans, S. oralis,; also recorded: S. salivarious, S. sanguinis”; that for PF-104 (ERTAVNDLWI) was “MRSA, C. jeikeium”.
For the substance 1T-77 (EMRISRIILDFLFLRKK), the “Target(s)” value under setting [1] is “S. pneumoniae”.
In the case of PF-037 (MTKKRRYDTTEFGLAHSMTAKITLHQALYK), under setting [2], the “Target(s)” value is recorded as “S. epidermidis, M. luteus, P. aeruginosa,; also recorded: C. albicans, MRSA,; also recorded: S. pneumoniae, E. faecalis, C. jeikeium”.
In the case of 1T-38 (VMFVLTRGRSPRPMIPAY), under setting [1], the “Target(s)” value is on record as “S. mutans, S. aereus, S. epidermidis,; also recorded: C. jeikeium, C. xerosis,; also recorded: C. striatum, P. aeruginosa”.
Still for that read-out and setting: the value for 1T-67 (GQRQRLTCGRVSGCSEGPSREAAR) was “S. aureus, S. epidermidis, C. jeikeium,; also recorded: C. xerosis, C. striatum,; also recorded: P. aeruginosa”; that for 1T-54 (RWVSCNPSWRIQ) was “S. epidermidis, C. xerosis, C. striatum,; also recorded: P. aeruginosa”.
As for PF-788 (GLITVFAGTARILQLRRAAKKTHAAALR), the “Target(s)” value under setting [3] is listed as “Mycobacteria spp”.
As for PF-011 (MFCYYKQHKGDNFSIEEVKNIIADNEMKVN), the “Target(s)” value under setting [2] is “M. luteus, E. coli, P. aeruginosa,; also recorded: S. pneumoniae, C. jeikeium”.
As to 1T-278 (SINSSAGIQPHCLSSSFVLRTKHCFY), under setting [2], the “Target(s)” value is on record as “A. naeslundii, F. nucleatum, P. gingivalis,; also recorded: S. gordonii, S. mitis,; also recorded: S. mutans, S. oralis, S. salivarious,; also recorded: S. sanguinis”.
Regarding 1T-106 (DALRRSRSQGRRHR), the “Target(s)” value under setting [1] is on record as “S. gordonii, S. mitis, S. mutans,; also recorded: S. oralis, S. salivarious”.
On to 1T-4 (LDAYGELVGGN), for which the “Target(s)” value under setting [1] is given as “L. casei; also recorded: S. mutans, S. gordonii, S. sanguinis,; also recorded: S. oralis, V. atypica,”.
Still for that read-out and setting: the value for “1T-33 (VRTLTILVIFIFNYLKSISYKLKQPFENNLAQSMISI)” was “S. aureus, S. epidermidis, C. jeikeium,; also recorded: C. xerosis, C. striatum,; also recorded: P. aeruginosa”.
As to PF-C045 (FREGMGWPLSNEGSPTAPLPKHRNQV), under setting [3], the “Target(s)” value was “A. naeslundii, T. denticola”.
Turning to 1T-195 (AASGFTYCASNGVWHPY), under setting [1], the “Target(s)” value is “S. mutans”.
Take PF-061 (GYNSYKAVQDVKTHSEEQRVTAKK): the “Target(s)” value under setting [2] is on record as “S. epidermidis, S. pneumoniae”.
For 1T-183 (PLRSFVAEKAEHAFRVVRIADFDFGHS), the “Target(s)” value under setting [1] is recorded as “A. naeslundii, F. nucleatum, P. gingivalis,; also recorded: S. epidermidis, S. gordonii,; also recorded: S. mitis, S. mutans, S. oralis,; also recorded: S. salivarious, S. sanguinis”.
On the same count and under the same terms, the value for 1T-153 (YIACPGYFY) was “A. naeslundii, F. nucleatum, P. gingivalis,; also recorded: S. epidermidis, S. gordonii,; also recorded: S. mitis, S. mutans, S. oralis,; also recorded: S. salivarious, S. sanguinis”; that for “1T-84 (FRKKRYGLSILLWLNAFTNLVNSIHAFYMTLF)” was “S. pneumoniae”.
Consider PF-158 (VRLESRPADLPE), for which the “Target(s)” value under setting [2] is given as “S. epidermidis”.
Same read-out and setting: the same measure for PF-044 (KLKKYIHKPD): “S. epidermidis, M. luteus, MRSA,; also recorded: C. jeikeium”.
With 1T-176 (PVGDIMSGFLRGANQPRFLLDHISFGS), under setting [1], the “Target(s)” value is “A. naeslundii, P. gingivalis, S. epidermidis,; also recorded: S. gordonii, S. mitis,; also recorded: S. mutans, S. oralis, S. salivarious,; also recorded: S. sanguinis”.
With PF-Y (FIKHFIHRF), under setting [3], the “Target(s)” value was “S. mutans”.
For “1T-133 (YFIKDDNEALSKDWEVIGNDLKGTIDKYGKEFKVR)”, the “Target(s)” value under setting [1] is given as “A. naeslundii, P. gingivalis, S. epidermidis,; also recorded: S. gordonii, S. mitis,; also recorded: S. mutans, S. oralis, S. salivarious,; also recorded: S. sanguinis”.
